The test system of the assay is Palmitoyl CoA oxidation. Nature of the assay: Palmitoyl CoA oxidation in isolated rat heart mitochondria. The settings on record: 1-C14 palmitoyl CoA, 15 min at 30° C., read-out: PalmCoA IC50. Format: biochemical. Here is the method: Rat heart mitochondria were isolated by the method of Nedergard and Cannon (Methods in Enzymol. 55, 3, 1979).
Palmitoyl CoA oxidation—The Palmityl CoA oxidation was carried out in a total volume of 100 micro liters containing the following agents: 110 mM KCl, 33 mM Tris buffer at pH 8, 2 mM KPi, 2 mM MgCl2, 0.1 mM EDTA, 14.7 microM defatted BSA, 0.5 mM malic acid, 13 mM carnitine, 1 mM ADP, 52 micrograms of mitochondrial protein, and 16 microM 1-C14 palmitoyl CoA (Sp. Activity 60 mCi/mmole; 20 microCi/ml, using 5 microliters per assay). The compounds of this invention were added in a DMSO solution at the following concentrations: 100 micro molar, 30 micro molar, and 3 micro molar. In each assay, a DMSO control was used. After 15 min at 30° C., the enzymatic reaction was centrifuged (20,000 g for 1 min), and 70 microliters of the supernatant was added to an activated reverse phase silicic acid column (approximately 0.5 ml of silicic acid). The column was eluted with 2 ml of water, and 0.5 ml of the eluent was used for scintillation counting to determine the amount of C^14 trapped as C^14 bicarbonate ion.

Consider 1 compound from US7407960B2, “Substituted heterocyclic compounds” (CV Therapeutics, Inc., priority 2002, dated 2008).

One may read the IC50 as the concentration that gives 50% inhibition.

For `Cc1nc2cc(OC[C@H](O)CN3CCN(CC(=O)Nc4cccc5c4CCC5)CC3)ccc2s1` [2-{4-[(2R)-2-hydroxy-3-(2-methylbenzothiazol-5-yloxy)propyl]piperazinyl}-N-indan-4-ylacetamide], the half-maximal inhibitory concentration (IC50) was 150 nM.
